Assay results: patent publication US7135457B1, “Random peptides that bind to gastro-intestinal tract (GIT) transport receptors and related methods” (Cytogen Corporation, priority 1997, dated 2006)
Peptide text beside a SMILES is read from it. * marks the point of attachment. Dansyl = CN(C)c1cccc2c(S(=O)(=O)*)cccc12

Tests used:
[1] = system: P100 membrane fractions derived from Caco-2 cells; assay: Dansylated peptide ELISA on P100: PAX2 and HAX42 peptides relative binding; settings: PAX2 peptides, ratio to ZElan021 (HAX42 = 1.00); for Binding value at 20 μg/ml: first 20 μg/ml column
Procedure: (§1) The peptides and proteins were analyzed by a dansylated peptide ELISA method in which 96 well plates were coated overnight at 4° C. with 100 μl/well coating protein (normally 100 μg/ml P100 membrane fraction) in 0.05M carbonate buffer pH9.6. Nonspecific binding was blocked using 200 μl/well, 2% Marvel/PBS for 2 hours at 37° C. prior to incubation with dansylated peptides. The plates were washed three times with PBS/0.05% Tween 20 and after each subsequent incubation step. […] A buffer blank control was included to ensure that background binding to plastic was not due to the antibodies used in the assay system. […] The plates were then incubated with an anti-mouse λ-HRP conjugated antibody (Southern Biotech 1060-05) at a 1:10,000 dilution in blocking solution, 100 μl/well for 1 hour at room temperature. Plates were developed using 75 μl/well Bionostics TMB substrate and incubated for approximately 10 minutes. The developing reaction was stopped using Bionostics Red Stop solution (25 μl/well), and the optical density of the plates was read at 650 nm.

[2] = system: P100 membrane fractions derived from Caco-2 cells; assay: as above; settings: ratio to ZElan021 (HAX42 = 1.00)
[3] = Procedure: In particular, phages selected in vitro to each receptor or binding site located in the GIT were amplified in E. coli, PEG-precipitated, resuspended in TBS and the titer of each phage sample was determined by plaquing in E. coli as described above. […] Using the in situ loop model described above, 0.5 ml of preselected phage library solution was injected into the tied-off portion of the duodenum/jejunum. Blood was collected into heparinized tubes from the portal vein at 0, 15, 30, 45 and 60 minutes. A blood sample was taken from the systemic circulation at the end of the experiment. Similarly, the portion of the duodenum/jejunum used for phage injection was taken at the end of the experiment.
Thirty microliters of the collected portal blood (neat and 10^−2, 10^−4, 10^−6 dilutions) was added to 30 μl E. coli K91Kan cells (overnight culture) and incubated at 37° C. for 10 min. Subsequently, 3 ml of top agarose was added and the samples were plated for plaques. One hundred microliters of the collected portal blood was added to 100 μl of E. coli K91Kan. Five milliliters of LB medium was then added and the samples were incubated at 37° C. overnight in a rotating microbial incubator. The E. coli was removed by centrifugation and the amplified phage supernatant samples were either titered directly or were PEG-precipitated, resuspended in TBS and titered. Following titration of the amplified phage, samples containing phage from each set of animals were combined, adjusting the titer of each sample to the same titer, and were plated for plaques on LB agar plates (22 cm^2 square plates). Either 12,000 or 24,000 phage were plated for plaques.
Thirty microliters of the collected systemic blood (neat and 10^−2, 10^−4, 10^−6 dilutions) was added to E. coli K91Kan cells, incubated at 37° C. for 10 min. Three ml of top agarose was then added and the samples were plated for plaques. One hundred microliters of the collected systemic blood was added to 100 μl of E. coli K91Kan, incubated at 37° C. for 10 min. Five milliliters of LB medium was then added and the samples were incubated at 37° C. overnight in a rotating microbial incubator. The E. coli was removed by centrifugation and the amplified phage supernatant samples were either titered directly or were PEG-precipitated, resuspended in TBS and titered. Following titration of the amplified phage, samples containing phage from each set of animals were combined, adjusting the titer of each sample to the same titer, and were plated for plaques on LB agar plates (22 cm^2 square plates). Either 12,000 or 24,000 phage were plated for plaques. The intestinal tissue portion used in each closed loop was excised. […] Alternatively, the tissue (in PBS supplemented with protease inhibitors) was homogenized in an Ultra Thorex homogenizer, washed 3 times in PBS containing protease inhibitors and resuspended in PBS containing protease inhibitors (Int-G samples). In each case, serial dilutions (neat and 10^−2, 10^−4, 10^−6 dilutions) of the tissue homogenate was titered in E. coli.
The phage amplified from the portal blood, systemic blood and intestinal tissue was plated for plaques. […] The filters were air-dried, and the DNA was cross-linked to the filter (UV crosslinking: 2 min, high setting). The filters were incubated in pre-hybridization buffer (6×SSC, 5×Denhardt's solution, 0.1% SDS, 20 μg/ml yeast tRNA) at 40° C.-45° C. for at least 60 min.
Synthetic oligonucleotides, (22-mers), complimentary to regions coding for the receptor or binding sites used to create the preselected phage library, were synthesized (see Table 14 below).
The oligonucleotides (5 pmol) were 5′ end labelled with ^32P-ATP and T4 polynucleotide kinase and approximately 2.5 pmol of labelled oligonucleotide was used in hybridization studies. […] The filters were air-dried and exposed for autoradiography for 15 hours, 24 hours or 72 hours.
Hybridization data for pools from each receptor group of rats was compiled.

[4] = Drug potency, peptide loading and size of coacervated particles; format: physicochemical; settings: formulation 1 particles (coacervation), blend
[5] = system: P100 membrane fraction derived from Caco-2 cells; assay: GST-PAX2 peptides relative binding to P100 fractions; settings: 20 μg/ml; binding to plastic subtracted; GST-HAX42 = 1.00
Procedure: as §1
After subtraction of the GST-peptide binding to plastic from P100 binding values, the binding of GST-PAX2 peptides were represented as a ratio of GST-HAX42 binding to P100, which was given the arbitrary value of 1.00. The following ratios were determined from binding to P100 of GST-peptides at a peptide concentration of 20 μg/ml. Bold denotes positive binding to the P100 membrane fraction.

[6] = system: fixed Caco-2 or C2BBe1 cells; assay: ELISA of GST fusion proteins on fixed Caco-2 or C2BBe1 cells; format: binding; settings: Caco-2
Procedure: Fixed Caco-2, C2BBe1, and A431 cell plates were prepared by growing cells on tissue culture treated microtiter plates. When cells were confluent, plates were fixed with 10% formaldehyde, washed twice with PBS and stored with 0.5% BSA-PBS at −20° C. […] The standard ELISA procedure was followed at this point.
The standard ELISA procedure was modified as follows. GST proteins were diluted to an appropriate concentration in PBS containing 1% BSA and 0.05% Tween20 (1% BPT), titered and incubated one hour at room temperature. Following five washes an anti-GST monoclonal antibody was added (Sigma, St. Louis Clone GST-2 diluted 1:10,000 in 1% BPT) and incubated one hour. After five more washes goat anti-mouse IgG2b-HRP was added (Southern Biotechnology Associates Inc., Birmingham, Ala., diluted 1:4000 in 1% BPT) and incubated one hour. After five washes plates were developed with TMB peroxidase substrate (Kirkegard and Perry, Gaithersburg, Md.). All data is presented with background binding subtracted.

CC(C)C[C@H](NC(=O)[C@H](CCCNC(=N)N)NC(=O)[C@H](CCCNC(=N)N)NC(=O)[C@H](CC(N)=O)NC(=O)[C@H](Cc1c[nH]cn1)NC(=O)[C@H](CO)NC(=O)[C@H](C)NC(=O)[C@@H](N)CCCCNS(=O)(=O)c1cccc2c(N(C)C)cccc12)C(=O)N[C@@H](CCCNC(=N)N)C(=O)N[C@H](C(=O)N[C@@H](CCCNC(=N)N)C(N)=O)[C@@H](C)O [ZElan073] (H-K(Dansyl)ASHNRRLRTR-NH2)
Binding value at 50 μg/ml (Southern Ab) [1]: 0.49 | Binding value at 20 μg/ml [1]: 0.07 | Binding value at 50 μg/ml ([1]; first 50 μg/ml column): −0.11 | Binding value at 50 μg/ml ([1]; second 50 μg/ml column): 0.49 | Binding value at 50 μg/ml (Jackson Ab) [2]: 0.66

CC(C)C[C@H](NC(=O)[C@H](CCCNC(=N)N)NC(=O)[C@H](CCCNC(=N)N)NC(=O)[C@H](CC(N)=O)NC(=O)[C@H](Cc1c[nH]cn1)NC(=O)[C@H](C)NC(=O)[C@H](CO)NC(=O)[C@@H](N)CCCCNS(=O)(=O)c1cccc2c(N(C)C)cccc12)C(=O)N[C@@H](CCCNC(=N)N)C(=O)N[C@H](C(=O)N[C@@H](CCCNC(=N)N)C(N)=O)[C@@H](C)O [ZElan074] (H-K(Dansyl)SAHNRRLRTR-NH2)
Binding value at 50 μg/ml (Southern Ab) [1]: 0.48 | Binding value at 20 μg/ml [1]: 0.06 | Binding value at 50 μg/ml ([1]; first 50 μg/ml column): 0.82 | Binding value at 50 μg/ml ([1]; second 50 μg/ml column): 0.52 | Binding value at 50 μg/ml (Jackson Ab) [2]: 0.71

CC(C)C[C@H](NC(=O)[C@H](CCCNC(=N)N)NC(=O)[C@H](CCCNC(=N)N)NC(=O)[C@H](CC(N)=O)NC(=O)[C@H](C)NC(=O)[C@H](CO)NC(=O)[C@H](CO)NC(=O)[C@@H](N)CCCCNS(=O)(=O)c1cccc2c(N(C)C)cccc12)C(=O)N[C@@H](CCCNC(=N)N)C(=O)N[C@H](C(=O)N[C@@H](CCCNC(=N)N)C(N)=O)[C@@H](C)O [ZElan075] (H-K(Dansyl)SSANRRLRTR-NH2)
Binding value at 50 μg/ml (Southern Ab) [1]: 0.32 | Binding value at 20 μg/ml [1]: 0.13 | Binding value at 50 μg/ml ([1]; first 50 μg/ml column): 0.52 | Binding value at 50 μg/ml ([1]; second 50 μg/ml column): 0.38 | Binding value at 50 μg/ml (Jackson Ab) [2]: 0.47

CC(C)C[C@H](NC(=O)[C@H](CCCNC(=N)N)NC(=O)[C@H](CCCNC(=N)N)NC(=O)[C@H](C)NC(=O)[C@H](Cc1c[nH]cn1)NC(=O)[C@H](CO)NC(=O)[C@H](CO)NC(=O)[C@@H](N)CCCCNS(=O)(=O)c1cccc2c(N(C)C)cccc12)C(=O)N[C@@H](CCCNC(=N)N)C(=O)N[C@H](C(=O)N[C@@H](CCCNC(=N)N)C(N)=O)[C@@H](C)O [ZElan076] (H-K(Dansyl)SSHARRLRTR-NH2)
Binding value at 50 μg/ml (Southern Ab) [1]: 0.42 | Binding value at 20 μg/ml [1]: 0.08 | Binding value at 50 μg/ml ([1]; first 50 μg/ml column): 1.00 | Binding value at 50 μg/ml ([1]; second 50 μg/ml column): 0.41 | Binding value at 50 μg/ml (Jackson Ab) [2]: 0.60

STPPSREAYSRPYSVDSDSDTNAKHSSHNRRLRTRSRPN [PAX2]
presence in the systemic circulation (in words) ([3]; text summary of HPT1 and hPEPT1 pools): found in the portal and systemic circulation | presence in the intestine samples or fractions (in words) ([3]; text summary of the four pools): not found in the intestine samples | Insulin (insulin potency) ([4]; coated with the named peptide): 60.7 mg/g | Peptide (level of peptide coated onto the particles) ([4]; measured by fluorescence): 3.51 µL/mg

glutathione S-transferase [GST, reference compound]
Value: binding to P100 as a ratio of GST-HAX42 binding [5]: 0.48

gst-RGSTGTAGGERSGVLNLHTRDNASGSGFKPWYPSNRGHK [GST-5PAX5]
binding to fixed Caco-2 or C2BBe1 cells relative to GST control [6]: weak to moderate binding

gst-RRLRTRSRPN [GST-115]
Value: binding to P100 as a ratio of GST-HAX42 binding [5]: 0.36

gst-SPCGGGSWCRFMQGGLFGGRTDGCGAHRNRTSASLEPPSSDY [GST-SNi34]
binding to fixed Caco-2 or C2BBe1 cells relative to GST control [6]: bound

gst-SRPYSVDSDSDTNAKHSSHNR [GST-105]
Value: binding to P100 as a ratio of GST-HAX42 binding [5]: −0.08

gst-SSHNRRLRTR [GST-114]
Value: binding to P100 as a ratio of GST-HAX42 binding [5]: 0.17

gst-STPPSREAYSRPYSVDSDSD [GST-104]
Value: binding to P100 as a ratio of GST-HAX42 binding [5]: 0.01

gst-TNAKHSSHN [GST-113]
Value: binding to P100 as a ratio of GST-HAX42 binding [5]: 0.26
